Several values for one entry are separate records, joined by “and”; a condition that tells them apart may be missing. Equal entries are not always repeated.
Assays:
[1] = tested on: STZ-induced diabetic mice; test: Vascular permeability by Evans blue tracer method in STZ mice; format: in vivo, mouse; details: single intraocular injection 70 ng 32-134D
Experimental: STZ-induced diabetes mouse model. 8-to-10 week-old male mice received an IP injection of STZ at 40 mg/kg of body weight in 0.1M of citrate buffer (pH 4.5) for 5 consecutive days. Normal chow and 10% sucrose water were provided during this period. 10% sucrose was discontinued and replaced with regular water on experimental day 6. […]
(§1) Intraocular injections. Intravitreal injections were performed with a PLI-100A Pico-liter Microinjector (Warner Instruments, Harvard Bioscience) using pulled-glass micropipettes. Each micropipette was calibrated to deliver a 1 μl volume on depression of a foot switch. […]
Images were captured with Zeiss fluorescent microscope. Eight fields per eye (2 fields per petal) including area of neovascularization were selected and fluorescence intensity was measured by ImageJ software. […]
The eyes were enucleated and immediately immersed in 4% (wt/vol) paraformaldehyde for 2 hours at room temperature. […] Images were captured by Zeiss fluorescent microscope or confocal microscopy and fluorescence was quantified by the image J software (National Institutes […]
of Health, Bethesda, MD). Blinded quantification of the number of leaking vessels was performed by manual counting of major leakage from capillaries from retinas of each group. […] Random fields were chosen from retinas where leakages were absent to determine baseline fluorescence that arise from capillaries. […]

C57BL/6 mice = test: Flash scotopic ERG after a single intraocular injection; format: in vivo, mouse; details: for A wave / B wave: in µV (unit assumed)
Experimental: as §1
Flash scotopic ERGs. All procedures were performed under dim red light. Mice were dark adapted overnight, anesthetized with ketamine (50 mg/kg) and xylazine (5mg/kg) and pupils were dilated with a topical drop of tropicamide (1%). Scotopic ERG responses were measured using the Celeris ERG stimulator (Diagnosys, Lowell, MA) at flash intensities of 0.025, 0.25, 2.5, 7.96, and 79.06 cd/s/m2. ERGs were measured simultaneously from both eyes with a ground electrode placed into the forehead between the eyes and a reference electrode into the hip. […]

Brc1ccc2c(-c3csc(-c4c[nH]c5c(Br)cccc45)n3)c[nH]c2c1 [32-134D, 4-(6-bromo-1H-indol-3-yl)-2-(7-bromo-1H-indol-3-yl)thiazole]
vascular hyperpermeability in STZ mice (in words) [1]: effectively inhibited vascular hyperpermeability | retinal toxicity on ERG (C57BL/6 mice; 32-134D 70, 140, 210, 350 ng single intraocular injection, up to 5 weeks): did not observe any evidence of retina toxicity | A wave (C57BL/6 mice; DAY7, flash 0.25, 140NG): 84.49 and 88.87 | A wave (C57BL/6 mice; DAY7, flash 2.5, 140NG): 138.4 and 109.3 | A wave (C57BL/6 mice; DAY7, flash 7.96, 140NG): 181.6 and 123.7 | B wave (C57BL/6 mice; DAY7, flash 7.96, 140NG): 337.9 | B wave (C57BL/6 mice; DAY7, flash 79.06, 140NG): 327.7 | B wave (C57BL/6 mice; DAY14, flash 0.025, 70NG): 149.2 and 168.6 and 209.2 and 152.4 and 190.2 and 184.53 and 268.4 | B wave (C57BL/6 mice; DAY14, flash 0.025, 140NG): 158.1 | A wave (C57BL/6 mice; DAY14, flash 0.25, 70NG): 69.71 and 75.03 and 99.56 and 75.32 and 55.14 and 80.45 and 95.29 | B wave (C57BL/6 mice; DAY14, flash 0.25, 70NG): 204.5 and 293.7 and 273.9 and 206.4 and 256.8 and 214.7 and 313 | A wave (C57BL/6 mice; DAY14, flash 0.25, 140NG): 76.62 and 123.2 | B wave (C57BL/6 mice; DAY14, flash 0.25, 140NG): 209.6 | A wave (C57BL/6 mice; DAY14, flash 2.5, 70NG): 116.4 and 108.2 and 136.4 and 117.2 and 152.87 and 100.6 and 158.9 | B wave (C57BL/6 mice; DAY14, flash 2.5, 70NG): 215 and 216 and 281.6 and 293.7 and 254.6 and 294.3 and 388.9 | A wave (C57BL/6 mice; DAY14, flash 2.5, 140NG): 128 and 175.3 | B wave (C57BL/6 mice; DAY14, flash 2.5, 140NG): 257.2 | A wave (C57BL/6 mice; DAY14, flash 7.96, 70NG): 135.7 and 102.5 and 159.1 and 157 and 172.6 and 118.4 and 175.8 | B wave (C57BL/6 mice; DAY14, flash 7.96, 70NG): 256.6 and 296.2 and 276.2 and 330.1 and 232.5 and 333.4 and 391 | A wave (C57BL/6 mice; DAY14, flash 7.96, 140NG): 138.7 and 208.7 | B wave (C57BL/6 mice; DAY14, flash 7.96, 140NG): 262.8 | A wave (C57BL/6 mice; DAY14, flash 79.06, 70NG): 161.6 and 123.9 and 177.3 and 180.4 and 182.2 and 135.3 and 174.3 | B wave (C57BL/6 mice; DAY14, flash 79.06, 70NG): 232.9 and 293.2 and 237.9 and 340.7 and 256.5 and 324.6 and 372.7 | A wave (C57BL/6 mice; DAY14, flash 79.06, 140NG): 168.4 and 191 | B wave (C57BL/6 mice; DAY14, flash 79.06, 140NG): 300.7 | B wave (C57BL/6 mice; DAY21, flash 0.025, 140NG): 129.1 | A wave (C57BL/6 mice; DAY21, flash 0.25, 70NG): 76.13 and 75.12 and 97.06 and 99.13 and 63.13 and 91.99 and 97.31 | B wave (C57BL/6 mice; DAY21, flash 0.25, 70NG): 236.1 and 170.7 and 170.8 and 248.9 and 189.8 and 286.3 and 297.9 | B wave (C57BL/6 mice; DAY21, flash 0.25, 140NG): 175.7 | A wave (C57BL/6 mice; DAY21, flash 2.5, 70NG): 112.6 and 110.6 and 152.6 and 169.8 and 108.4 and 159.7 and 165.1 | B wave (C57BL/6 mice; DAY21, flash 2.5, 70NG): 298.7 and 211.6 and 203 and 296 and 196.2 and 332.2 and 364.3 | A wave (C57BL/6 mice; DAY21, flash 7.96, 70NG): 105.9 and 120.3 and 162.9 and 176.2 and 125.7 and 175.1 and 172 | B wave (C57BL/6 mice; DAY21, flash 7.96, 70NG): 315.1 and 232.4 and 223 and 328.4 and 215.9 and 350.1 and 374.6 | A wave (C57BL/6 mice; DAY21, flash 7.96, 140NG): 126.8 and 195.8 | A wave (C57BL/6 mice; DAY21, flash 79.06, 70NG): 108.1 and 130.3 and 166.3 and 180.2 and 139.8 and 172.8 and 188 | B wave (C57BL/6 mice; DAY21, flash 79.06, 70NG): 286.8 and 226.3 and 206.8 and 273.5 and 273.2 and 297.6 and 298.6 | A wave (C57BL/6 mice; DAY21, flash 79.06, 140NG): 148.7 and 231 | A wave (C57BL/6 mice; DAY28, flash 2.5, 140NG): 148.8 and 128.1 | A wave (C57BL/6 mice; DAY28, flash 7.96, 70NG): 118.7 and 202.6 and 114.3 and 192.2 and 119.5 and 102.4 and 173.1 | A wave (C57BL/6 mice; DAY28, flash 7.96, 140NG): 168.7 | A wave (C57BL/6 mice; DAY28, flash 79.06, 70NG): 125.3 and 187.6 and 118.9 and 161.8 and 121.28 and 110 and 160.6 | A wave (C57BL/6 mice; DAY28, flash 79.06, 140NG): 153 | A wave (C57BL/6 mice; DAY35, flash 2.5, 140NG): 66 | A wave (C57BL/6 mice; DAY35, flash 79.06, 70NG): 74.06 and 95.89 and 102 and 95.42 and 92.65 and 81.18 and 82.72 | B wave (C57BL/6 mice; DAY35, flash 79.06, 70NG): 112.4 and 198.3 and 140.3 and 150.2 and 167.5 and 220.3 and 163
